We go through seven molecules from ChEMBL document CHEMBL1629569, “Widespread dissemination of aminoglycoside resistance genes armA and rmtB in Klebsiella pneumoniae isolates in Taiwan producing CTX-M-type extended-spectrum beta-lactamases” (2009).

Common to all, as to type: functional
In experiment [1] the test system is Klebsiella pneumoniae. As to the kind of experiment: Antimicrobial activity against ESBL-producing Klebsiella pneumoniae clinical isolate by broth microdilution method. (In general: Broth dilution looks for growth in wells or tubes with falling amounts of substance.)
Experiment [2] concerns Klebsiella pneumoniae. Put plainly: Antimicrobial activity against ESBL-producing Klebsiella pneumoniae clinical isolate assessed as susceptible isolates.
The subject of experiment [3] is Klebsiella pneumoniae. As to the kind of experiment: Antimicrobial activity against ESBL-producing Klebsiella pneumoniae clinical isolate assessed as resistant isolates.

Converted amounts (≈) assume the structure as drawn. A value given as a limit tells only on which side of the number the result lay.

`NCC[C@H](O)C(=O)N[C@@H]1C[C@H](N)[C@@H](O[C@H]2O[C@H](CN)[C@@H](O)[C@H](O)[C@H]2O)[C@H](O)[C@H]1O[C@H]1O[C@H](CO)[C@@H](O)[C@H](N)[C@H]1O` [AMIKACIN]: in the experiment with Klebsiella pneumoniae [1], the MIC50 – broadly, an inhibitory concentration at the 50% level, which refers to growth in some studies and to a panel of isolates in others – stood at 32 µg/mL (≈ 54.6 µM); the MIC90 (in general, the lowest concentration that inhibits either 90% of growth or 90% of the strains tested, depending on the study) was 64 µg/mL (≈ 109 µM). Besides, the Activity with Klebsiella pneumoniae [2] stood at 106 isolates. Further, in the experiment on Klebsiella pneumoniae [3], the Activity was 102 isolates.
In the experiment on Klebsiella pneumoniae [1], `CC1(C)S[C@@H]2[C@H](NC(=O)[C@H](N)c3ccccc3)C(=O)N2[C@H]1C(=O)O` [AMPICILLIN] came in with an MIC50 of over 64 µg/mL and an MIC90 of over 64 µg/mL. Moreover, in the experiment with Klebsiella pneumoniae [2], the Activity was determined as 0 isolates. Further, the Activity in the experiment with Klebsiella pneumoniae [3] was 235 isolates.
In the experiment on Klebsiella pneumoniae [1], `CO/N=C(\C(=O)N[C@@H]1C(=O)N2C(C(=O)O)=C(COC(C)=O)CS[C@H]12)c1csc(N)n1` [CEFOTAXIME] gave an MIC50 of 64 µg/mL (≈ 141 µM) and an MIC90 of 64 µg/mL (≈ 141 µM). The Activity in the experiment on Klebsiella pneumoniae [2] is 12 isolates. For the same molecule, in the experiment with Klebsiella pneumoniae [3], the Activity came to 146 isolates.
For `CO[C@@]1(NC(=O)Cc2cccs2)C(=O)N2C(C(=O)O)=C(COC(N)=O)CS[C@@H]21` [CEFOXITIN], in the experiment with Klebsiella pneumoniae [1], the MIC50 came out at 16 µg/mL (≈ 37.4 µM) and the MIC90 came out at 32 µg/mL (≈ 74.9 µM). In the experiment on Klebsiella pneumoniae [2], the Activity was 102 isolates. The Activity in the experiment on Klebsiella pneumoniae [3] was 95 isolates.
In the experiment with Klebsiella pneumoniae [1], `CC(C)(O/N=C(\C(=O)N[C@@H]1C(=O)N2C(C(=O)[O-])=C(C[n+]3ccccc3)CS[C@H]12)c1csc(N)n1)C(=O)O` [CEFTAZIDIME] gave an MIC50 of 32 µg/mL (≈ 58.5 µM) and an MIC90 of 32 µg/mL (≈ 58.5 µM). Also, in the experiment with Klebsiella pneumoniae [2], the Activity was 38 isolates. Moreover, the Activity in the experiment on Klebsiella pneumoniae [3] turned out to be 158 isolates.
Turning to `C[C@@H](O)[C@H]1C(=O)N2C(C(=O)O)=C(SCCNC=N)C[C@H]12` [IMIPENEM ANHYDROUS], in the experiment on Klebsiella pneumoniae [1], the MIC50 worked out at 0.25 µg/mL (≈ 0.835 µM) and the MIC90 turned out to be 2 µg/mL (≈ 6.68 µM). Moreover, the Activity in the experiment with Klebsiella pneumoniae [2] is 230 isolates. Moreover, in the experiment with Klebsiella pneumoniae [3], the Activity turned out to be 2 isolates.
In the experiment with Klebsiella pneumoniae [1], GENTAMICIN displayed an MIC50 of 16 µg/mL and an MIC90 of 16 µg/mL. Further, in the experiment on Klebsiella pneumoniae [2], the Activity came out at 21%.
